This is an account of results in patent US20260085280A1, “ADAPTATION AND PROCESS OPTIMIZATION OF MICROORGANISMS FOR GROWTH IN HEMICELLULOSIC DERIVED CARBOHYDRATES” (MARA RENEWABLES CORPORATION, priority 2018, published 2026).

The test system of one assay is Gxs1 7-7. Nature of the assay: xylose depletion flask assay, medium spiked with increasing concentrations of xylitol. It counts as cell-based, Thraustochytrium species (ONC-T18). As to conditions: 20 g/L xylose and 8 g/L glucose; for Biomass / Xylose used / Xylose used (%): after 144 hours. Here is the method:
The impact of xylitol concentration on glucose and xylose consumption was determined using 7-7, Gxs1 7-7, and 51-7 strains. […] In xylose depletion flask assays, Gxs1 7-7 was used with medium containing 20 g/L xylose and 8 g/L glucose and spiked with increasing concentrations of xylitol as shown in Table 4. The values in Table 4 are the total amount of biomass produced and xylose used after 144 hours. The glucose used amounts are shown at 48 hours.

For assay [1], the system named is 7-7, Gxs1 7-7, and 51-7 strains. Briefly: impact of xylitol concentration on glucose and xylose consumption. It counts as cell-based, Thraustochytrium species (ONC-T18). As to conditions: FIGS. 2A-2D and Table 4. Here is the method:
The impact of xylitol concentration on glucose and xylose consumption was determined using 7-7, Gxs1 7-7, and 51-7 strains.

Take `OC[C@@H](O)[C@H](O)[C@@H](O)CO` [Xylitol, xylitol]: in the assay with Gxs1 7-7 (1 g L^−1 xylitol), the “Glucose used (%) @48 hr” value is recorded as 99.9%, the “Glucose used (g) @48 hr” value worked out at 9.04 g, the Biomass turned out to be 7.225 g/L and the “Xylose used” value came to 11.03 g. The “Xylose used (%)” value with Gxs1 7-7 (1 g L^−1 xylitol) turned out to be 56.2%. In addition, in the assay with Gxs1 7-7 (5 g L^−1 xylitol), the “Glucose used (%) @48 hr” value is listed as 43.7%, the “Glucose used (g) @48 hr” value is 3.99 g, the Biomass came out at 6.683 g/L and the “Xylose used” value came to 5.06 g. Also, the “Xylose used (%)” value in the assay with Gxs1 7-7 (5 g L^−1 xylitol) is reported as 25.5%. In addition, in the assay on Gxs1 7-7 (10 g L^−1 xylitol), the “Glucose used (%) @48 hr” value was 18.6%, the “Glucose used (g) @48 hr” value is given as 1.66 g, the Biomass worked out at 6.425 g/L and the “Xylose used” value is recorded as 4.24 g. The “Xylose used (%)” value with Gxs1 7-7 (10 g L^−1 xylitol) is listed as 22.0%. For the same compound, in the assay with Gxs1 7-7 (15 g L^−1 xylitol), the “Glucose used (%) @48 hr” value was 12.8%, the “Glucose used (g) @48 hr” value was 1.13 g, the Biomass was determined as 6.592 g/L and the “Xylose used” value was 3.67 g. In the assay with Gxs1 7-7 (15 g L^−1 xylitol), the “Xylose used (%)” value was found to be 19.3%. For the same compound, the “xylitol concentration to be kept in order to avoid growth inhibition” value in assay [1] is given as “lower than 1 g/L”.
